Organism: Rattus norvegicus
Experiment: DrugMatrix - Regimen: Daily Repeat
Assay type: toxicity, organism-based, Sprague-Dawley
Design: regimen Daily Repeat, gender Male, age 6-8 weeks
Conditions: in vivo, po, route oral GAVAGE, vehicle 100 % WATER; for ABSOLUTE BASOPHIL / ABSOLUTE EOSINOPHIL / ABSOLUTE LYMPHOCYTE / ABSOLUTE MONOCYTE / ABSOLUTE SEGMENTED NEUTROPHIL / BASOPHIL / EOSINOPHIL / ERYTHROCYTE COUNT / HEMATOCRIT / HEMOGLOBIN / LEUKOCYTE COUNT / LYMPHOCYTE / MEAN CORPUSCULAR HEMOGLOBIN / MEAN CORPUSCULAR HEMOGLOBIN CONCENTRATION / MEAN CORPUSCULAR VOLUME / MONOCYTE / NEUTROPHIL / NUCLEATED RED BLOOD CELLS / PLATELET COUNT: tissue Blood; for ALANINE AMINOTRANSFERASE / ALBUMIN / ALKALINE PHOSPHATASE / ASPARTATE AMINOTRANSFERASE / BLOOD UREA NITROGEN / CARBON DIOXIDE / CHLORIDE / CHOLESTEROL / CREATINE PHOSPHOKINASE / CREATININE / GLUCOSE / LACTATE DEHYDROGENASE / LIPASE / PHOSPHORUS / POTASSIUM / SODIUM / TOTAL BILIRUBIN / TOTAL PROTEIN / URIC ACID: tissue Plasma
[1] = 27 mg/kg, 72 h, dose level High, time 3 day
[2] = 27 mg/kg, 120 h, dose level High, time 5 day
[3] = […], 72 h, dose 2.7 mg/Kg, dose level Low, time 3 day
[4] = […], 120 h, dose 2.7 mg/Kg, dose level Low, time 5 day

NNCCc1ccccc1 [PHENELZINE]
ABSOLUTE BASOPHIL [1]: 0 CELLS/uL
ABSOLUTE EOSINOPHIL [1]: 54.67 CELLS/uL
ABSOLUTE LYMPHOCYTE [1]: 7424 CELLS/uL
ABSOLUTE MONOCYTE [1]: 106.67 CELLS/uL
ABSOLUTE SEGMENTED NEUTROPHIL [1]: 481.33 CELLS/uL
BASOPHIL [1]: 0%
EOSINOPHIL [1]: 0.67%
ERYTHROCYTE COUNT [1]: 5.49 x10E6/uL
HEMATOCRIT [1]: 35.1%
HEMOGLOBIN [1]: 14.03 G/DL
LEUKOCYTE COUNT [1]: 8.07 x10E3/uL
LYMPHOCYTE [1]: 92%
MEAN CORPUSCULAR HEMOGLOBIN [1]: 25.57 pg
MEAN CORPUSCULAR HEMOGLOBIN CONCENTRATION [1]: 39.97 G/DL
MEAN CORPUSCULAR VOLUME [1]: 63.93 fL
MONOCYTE [1]: 1.33%
NEUTROPHIL [1]: 6%
NUCLEATED RED BLOOD CELLS [1]: 0 /100WBC
PLATELET COUNT [1]: 1341.67 x10E3/uL
ALANINE AMINOTRANSFERASE [1]: 25.67 u/L
ALBUMIN [1]: 4.5 G/DL
ALKALINE PHOSPHATASE [1]: 356.33 u/L
ASPARTATE AMINOTRANSFERASE [1]: 75.67 u/L
BLOOD UREA NITROGEN [1]: 16.67 mg/dL
CARBON DIOXIDE [1]: 31 mmol/L
CHLORIDE [1]: 102.33 MEQ/L
CHOLESTEROL [1]: 78.33 mg/dL
CREATINE PHOSPHOKINASE [1]: 265 u/L
CREATININE [1]: 0.16 mg/dL
GLUCOSE [1]: 143 mg/dL
LACTATE DEHYDROGENASE [1]: 131.33 u/L
LIPASE [1]: 9.33 u/L
PHOSPHORUS [1]: 11.73 mg/dL
POTASSIUM [1]: 6.74 MEQ/L
SODIUM [1]: 145.43 MEQ/L
TOTAL BILIRUBIN [1]: 0.23 mg/dL
TOTAL PROTEIN [1]: 6.07 G/DL
URIC ACID [1]: 1.23 mg/dL
ABSOLUTE BASOPHIL [2]: 0 CELLS/uL
ABSOLUTE EOSINOPHIL [2]: 69.33 CELLS/uL
ABSOLUTE LYMPHOCYTE [2]: 8987.33 CELLS/uL
ABSOLUTE MONOCYTE [2]: 88.33 CELLS/uL
ABSOLUTE SEGMENTED NEUTROPHIL [2]: 388.33 CELLS/uL
BASOPHIL [2]: 0%
EOSINOPHIL [2]: 0.67%
ERYTHROCYTE COUNT [2]: 6.17 x10E6/uL
HEMATOCRIT [2]: 39.07%
HEMOGLOBIN [2]: 15.3 G/DL
LEUKOCYTE COUNT [2]: 9.53 x10E3/uL
LYMPHOCYTE [2]: 94.33%
MEAN CORPUSCULAR HEMOGLOBIN [2]: 24.8 pg
MEAN CORPUSCULAR HEMOGLOBIN CONCENTRATION [2]: 39.17 G/DL
MEAN CORPUSCULAR VOLUME [2]: 63.33 fL
MONOCYTE [2]: 1%
NEUTROPHIL [2]: 4%
NUCLEATED RED BLOOD CELLS [2]: 0 /100WBC
PLATELET COUNT [2]: 1357.33 x10E3/uL
ALANINE AMINOTRANSFERASE [2]: 18.67 u/L
ALBUMIN [2]: 4.37 G/DL
ALKALINE PHOSPHATASE [2]: 271 u/L
ASPARTATE AMINOTRANSFERASE [2]: 103.33 u/L
BLOOD UREA NITROGEN [2]: 26 mg/dL
CARBON DIOXIDE [2]: 23 mmol/L
CHLORIDE [2]: 110 MEQ/L
CHOLESTEROL [2]: 68.33 mg/dL
CREATINE PHOSPHOKINASE [2]: 320.33 u/L
CREATININE [2]: 0.2 mg/dL
GLUCOSE [2]: 155 mg/dL
LACTATE DEHYDROGENASE [2]: 594.67 u/L
LIPASE [2]: 10 u/L
PHOSPHORUS [2]: 11.2 mg/dL
POTASSIUM [2]: 5.16 MEQ/L
SODIUM [2]: 150.7 MEQ/L
TOTAL BILIRUBIN [2]: 0.17 mg/dL
TOTAL PROTEIN [2]: 6 G/DL
URIC ACID [2]: 1.43 mg/dL
ABSOLUTE BASOPHIL [3]: 0 CELLS/uL
ABSOLUTE EOSINOPHIL [3]: 60.67 CELLS/uL
ABSOLUTE LYMPHOCYTE [3]: 9104.67 CELLS/uL
ABSOLUTE MONOCYTE [3]: 151.67 CELLS/uL
ABSOLUTE SEGMENTED NEUTROPHIL [3]: 949.67 CELLS/uL
BASOPHIL [3]: 0%
EOSINOPHIL [3]: 0.67%
ERYTHROCYTE COUNT [3]: 5.11 x10E6/uL
HEMATOCRIT [3]: 32.4%
HEMOGLOBIN [3]: 12.97 G/DL
LEUKOCYTE COUNT [3]: 10.27 x10E3/uL
LYMPHOCYTE [3]: 88%
MEAN CORPUSCULAR HEMOGLOBIN [3]: 25.37 pg
MEAN CORPUSCULAR HEMOGLOBIN CONCENTRATION [3]: 40.03 G/DL
MEAN CORPUSCULAR VOLUME [3]: 63.37 fL
MONOCYTE [3]: 1.67%
NEUTROPHIL [3]: 9.67%
NUCLEATED RED BLOOD CELLS [3]: 0 /100WBC
PLATELET COUNT [3]: 935.33 x10E3/uL
ALANINE AMINOTRANSFERASE [3]: 55.33 u/L
ALBUMIN [3]: 4.33 G/DL
ALKALINE PHOSPHATASE [3]: 325.33 u/L
ASPARTATE AMINOTRANSFERASE [3]: 98 u/L
BLOOD UREA NITROGEN [3]: 15.33 mg/dL
CARBON DIOXIDE [3]: 33 mmol/L
CHLORIDE [3]: 101.67 MEQ/L
CHOLESTEROL [3]: 78.33 mg/dL
CREATINE PHOSPHOKINASE [3]: 665.67 u/L
CREATININE [3]: 0.17 mg/dL
GLUCOSE [3]: 155 mg/dL
LACTATE DEHYDROGENASE [3]: 181.67 u/L
LIPASE [3]: 9 u/L
PHOSPHORUS [3]: 12.03 mg/dL
POTASSIUM [3]: 6.23 MEQ/L
SODIUM [3]: 144.83 MEQ/L
TOTAL BILIRUBIN [3]: 0.17 mg/dL
TOTAL PROTEIN [3]: 5.93 G/DL
URIC ACID [3]: 1.23 mg/dL
ABSOLUTE BASOPHIL [4]: 0 CELLS/uL
ABSOLUTE EOSINOPHIL [4]: 42 CELLS/uL
ABSOLUTE LYMPHOCYTE [4]: 10324 CELLS/uL
ABSOLUTE MONOCYTE [4]: 37 CELLS/uL
ABSOLUTE SEGMENTED NEUTROPHIL [4]: 997 CELLS/uL
BASOPHIL [4]: 0%
EOSINOPHIL [4]: 0.33%
ERYTHROCYTE COUNT [4]: 5.61 x10E6/uL
HEMATOCRIT [4]: 36.03%
HEMOGLOBIN [4]: 14.1 G/DL
LEUKOCYTE COUNT [4]: 11.4 x10E3/uL
LYMPHOCYTE [4]: 90.67%
MEAN CORPUSCULAR HEMOGLOBIN [4]: 25.13 pg
MEAN CORPUSCULAR HEMOGLOBIN CONCENTRATION [4]: 39.2 G/DL
MEAN CORPUSCULAR VOLUME [4]: 64.23 fL
MONOCYTE [4]: 0.33%
NEUTROPHIL [4]: 8.67%
NUCLEATED RED BLOOD CELLS [4]: 0 /100WBC
PLATELET COUNT [4]: 1075 x10E3/uL
ALANINE AMINOTRANSFERASE [4]: 41.33 u/L
ALBUMIN [4]: 4.57 G/DL
ALKALINE PHOSPHATASE [4]: 403 u/L
ASPARTATE AMINOTRANSFERASE [4]: 105.67 u/L
BLOOD UREA NITROGEN [4]: 21.67 mg/dL
CARBON DIOXIDE [4]: 25.67 mmol/L
CHLORIDE [4]: 101.67 MEQ/L
CHOLESTEROL [4]: 67 mg/dL
CREATINE PHOSPHOKINASE [4]: 480.33 u/L
CREATININE [4]: 0.33 mg/dL
GLUCOSE [4]: 130.33 mg/dL
LACTATE DEHYDROGENASE [4]: 623.33 u/L
LIPASE [4]: 11.33 u/L
PHOSPHORUS [4]: 12.7 mg/dL
POTASSIUM [4]: 6.78 MEQ/L
SODIUM [4]: 142.87 MEQ/L
TOTAL BILIRUBIN [4]: 0.27 mg/dL
TOTAL PROTEIN [4]: 6.3 G/DL
URIC ACID [4]: 1.63 mg/dL

Reference: ChEMBL document CHEMBL3885881, “DrugMatrix”
